US20170216315A1 (priority 2016, published 2017)
Marks after values point to notes of the source that are not given here.

Key:
male C57BL/6 mice [1] = experiment: Amount of glutathione (GSH) in liver homogenate; conditions: for Amount of GSH: liver homogenate, alcoholic liquid diet, 4 weeks
TNF-α = experiment: Concentration of TNF-α in liver (ELISA); assay type: in vivo, mice; conditions: EK100 1, 5, 10 mg/kg/day vs EtOH group; p<0.05; FIG. 9A
Description: D-3 were taken and diluted with Calibrator Diluent RD 5-17 to ⅓ of the original concentration respectively, and then a Quantikine® Rat TNF-α or a Quantikine® Rat IL-1β commercial kit (purchased from R&D Systems company, United States) was used for the Enzyme-linked immune-sorption assay (ELISA) to measure the amounts of tumor necrosis factor-alpha (TNF-α) and interleukin-1β (IL-1β) therein. […]

male C57BL/6 mice [2] = experiment: Amounts of TAG and TC in serum; assay type: in vivo; conditions: EK100 1, 5, 10 mg/kg/day vs EtOH group; p<0.05; FIG. 2A
[3] = tested on: LXR-α, SREBP-1c, ACC, FAS, ME; experiment: Expressions of lipid synthesis-related genes in liver (real-time PCR); assay type: in vivo, mice; conditions: EK100 1, 5, 10 mg/kg/day vs EtOH group, p<0.05, FIG. 4
Method: C-4 was put into a 0.8 ml RNAlater containing an RNA stabilizer (Qiagen company, United States), and then the commercial kit (E.Z.N.A™ Tissue RNA kit, purchased from Omega Bio-Tek company, United States) was used to extract the mRNA therein. After that, the mRNA sample obtained therefrom was reverse transcribed to provide cDNA, and then specific primers (as shown in Table 2) were used to conduct real-time polymerase chain reaction (real-time PCR) of the cDNA to observe the expression of each gene in the mouse liver, wherein the operation steps of the real-time polymerase chain reaction were as follows: (i) 2 μl of cDNA (50 ng/μl), 5 μl of SYBR Green (Molecular Probes company, United States, Applied Biosystems/Fast SYBR® Green Master Mix), 2 μl of RNase-free water, 1 μl of forward primer, and 1 μl of reverse primer were well mixed and then centrifuged; (ii) the above sample was put into a real-time polymerase chain reaction system (Applied Biosystems/StepOne Real time PCR system) to detect the expression of each gene, wherein the expression of GAPDH was used as the […] control.
It has been known that LXR-α, SREBP-1c, ACC, FAS, ME, etc. are genes related to lipid synthesis, thus, the expressions of the above genes in mouse liver of each group were compared by the analysis method of [Preparation Examples] D-2.

[4] = Feed intake, relative weight of organs and of fat pads; assay type: in vivo, mice; conditions: for Relative weight of abdominal fat pad / Relative weight of epididymal fat pad / Relative weight of heart / Relative weight of kidney / Relative weight of liver / Relative weight of spleen: alcoholic liquid diet, week 4
Method: C-1. The feed intakes of mice were recorded every day (4 mice from each group were randomly picked for recording, and an average of the 4 mice was taken). The changes in the mice body weight were recorded at the last day of every week (i.e., an average of 8 mice from each group), over a four-week period.
C-4. After “C-3” was completed, the mice were sacrificed. The weights of the mice hearts, livers, kidneys, spleens, and abdominal and epididymal fat pads were measured and recorded; the mice livers were washed with sterilized saline, and then the liver appearances were recorded by a camera. The collected organs and feces were stored at −80° C. for the following analysis (recording, sample collection and storage were conducted for all of the 8 mice from each group).
The average values of daily feed intakes of mice of each group recorded in [Preparation Examples] Besides, the weights of mice organ and fat of each group obtained from [Preparation Examples] C-4 were averaged, respectively, and then the average weights (g) were divided by the average body weights of mice in week 4 from the corresponding group to obtain the relative weights of organs and the relative weights of fat.

male C57BL/6 mice [5] = experiment: TBARS value of liver homogenate; conditions: for TBARS value: liver homogenate, alcoholic liquid diet, 4 weeks
male C57BL/6 mice [6] = experiment: Hepatitis histological activity index (HAI score); assay type: in vivo; conditions: EK100 1, 5, 10 mg/kg/day vs EtOH group; p<0.05; FIG. 11
Description: To further observe the inflammation of mouse liver, the internationally accepted hepatitis histological activity index (HAI score) was used to categorize the hepatitis activity into the portal zone, lobuli hepatis zone, and periportal zone, which were scored with 0 to 10 points (as shown in Table 8). […] J Insur Med. 33: 110-113 (2001),” which is incorporated herein for reference.

[7] = EK100 1, 5, 10 mg/kg/day vs EtOH group, p<0.05

CC(C)[C@@H](C)/C=C/[C@@H](C)[C@H]1CC[C@H]2C3=CCC4C[C@@H](O)CC[C@]4(C)C3=CC[C@]12C (stereo partly drawn) [EK100]
Amount of GSH in liver compared to EtOH (male C57BL/6 mice [1]; [7]): significantly increased | Amount of GSH (male C57BL/6 mice [1]; EK100_1X: 1 mg/kg/day gavage): 49.08 ± 4.78^b nmol/mg protein | Amount of GSH (male C57BL/6 mice [1]; EK100_5X: 5 mg/kg/day gavage): 71.14 ± 4.17^a nmol/mg protein | Amount of GSH (male C57BL/6 mice [1]; EK100_10X: 10 mg/kg/day gavage): 77.21 ± 2.95^a nmol/mg protein | Concentration of TNF-α in liver compared to EtOH (TNF-α): significantly decreased | Amount of TAG in serum compared to EtOH (male C57BL/6 mice [2]): significantly decreased | Amount of TC in serum compared to EtOH (male C57BL/6 mice [2]): significantly decreased | Expressions of lipid synthesis-related genes in liver compared to EtOH [3]: significantly decreased | Relative weight of epididymal fat pad compared to EtOH [4, 7]: significantly lower | Relative weight of abdominal fat pad ([4]; EK100_1X: 1 mg/kg/day gavage): 0.21 ± 0.03^c g/100 g of mice body weight | Relative weight of epididymal fat pad ([4]; EK100_1X: 1 mg/kg/day gavage): 1.30 ± 0.11^c g/100 g of mice body weight | Relative weight of heart ([4]; EK100_1X: 1 mg/kg/day gavage): 0.53 ± 0.03^bc g/100 g of mice body weight | Relative weight of kidney ([4]; EK100_1X: 1 mg/kg/day gavage): 1.33 ± 0.04^a g/100 g of mice body weight | Relative weight of liver ([4]; EK100_1X: 1 mg/kg/day gavage): 4.50 ± 0.14^a g/100 g of mice body weight | Relative weight of spleen ([4]; EK100_1X: 1 mg/kg/day gavage): 0.53 ± 0.03^a g/100 g of mice body weight | Relative weight of abdominal fat pad ([4]; EK100_5X: 5 mg/kg/day gavage): 0.41 ± 0.06^b g/100 g of mice body weight | Relative weight of epididymal fat pad ([4]; EK100_5X: 5 mg/kg/day gavage): 1.42 ± 0.14^c g/100 g of mice body weight | Relative weight of heart ([4]; EK100_5X: 5 mg/kg/day gavage): 0.57 ± 0.04^ab g/100 g of mice body weight | Relative weight of kidney ([4]; EK100_5X: 5 mg/kg/day gavage): 1.28 ± 0.05^a g/100 g of mice body weight | Relative weight of liver ([4]; EK100_5X: 5 mg/kg/day gavage): 4.33 ± 0.20^a g/100 g of mice body weight | Relative weight of spleen ([4]; EK100_5X: 5 mg/kg/day gavage): 0.55 ± 0.04^a g/100 g of mice body weight | Relative weight of abdominal fat pad ([4]; EK100_10X: 10 mg/kg/day gavage): 0.40 ± 0.04^b g/100 g of mice body weight | Relative weight of epididymal fat pad ([4]; EK100_10X: 10 mg/kg/day gavage): 1.62 ± 0.07^c g/100 g of mice body weight | Relative weight of heart ([4]; EK100_10X: 10 mg/kg/day gavage): 0.51 ± 0.01^bc g/100 g of mice body weight | Relative weight of kidney ([4]; EK100_10X: 10 mg/kg/day gavage): 1.14 ± 0.02^b g/100 g of mice body weight | Relative weight of liver ([4]; EK100_10X: 10 mg/kg/day gavage): 4.48 ± 0.10^a g/100 g of mice body weight | Relative weight of spleen ([4]; EK100_10X: 10 mg/kg/day gavage): 0.55 ± 0.02^a g/100 g of mice body weight | TBARS value of liver compared to EtOH (male C57BL/6 mice [5]; [7]): significantly decreased | TBARS value (male C57BL/6 mice [5]; EK100_1X: 1 mg/kg/day gavage): 0.56 ± 0.04^b nmol malondialdehyde/mg protein | TBARS value (male C57BL/6 mice [5]; EK100_5X: 5 mg/kg/day gavage): 0.54 ± 0.05^b nmol malondialdehyde/mg protein | TBARS value (male C57BL/6 mice [5]; EK100_10X: 10 mg/kg/day gavage): 0.46 ± 0.04^b nmol malondialdehyde/mg protein | HAI score of periportal inflammation (necrosis) compared to EtOH (male C57BL/6 mice [6]): significantly decreased | HAI score of portal inflammation compared to EtOH (male C57BL/6 mice [6]): significantly decreased
